These compounds were tested against human M4 receptor (Homo sapiens (Human), UniProt P08173) (assay: Radioligand (tritiated N-methylscopolamine) binding assay, M4). Conditions: Ki against the M4 receptor; membranes from CHO cells expressing human M4; tritiated N-methylscopolamine 1.5 nM; read-out: Ki.
Description: Binding affinity (Ki) of compounds was measured by inhibition of radioligand binding to membranes from CHO cells expressing human M1, M2, M3, M4 and M5 receptors. Membranes were prepared by nitrogen cavitation and differential centrifugation as previously described (Hoare et al., Mol. Pharmacol. 2003 March; 63(3): 751-65). The radioligand employed was tritiated N-methylscopolamine, used at a concentration of 1.5 nM. A dose-response of twelve concentrations of compound was used, ranging from 10 μM to […]. The assay buffer was 50 mM HEPES, 100 mM NaCl, 5 mM MgCl2, 1 mM ethylenediaminetetraacetic acid, pH-adjusted to pH 7.4. Membranes, radioligand and compound were incubated together for 90 minutes at 37° C., in a total volume of 150 μl in a 96-well plate. Receptor-bound radioligand was then collected by harvesting the assay over glass fiber filters pretreated with polyethylenimine to trap the cell membranes, using rapid vacuum filtration. Harvesting and radioactivity counting was conducted as previously described (see, e.g., Hoare et al., Mol. Pharmacol. 2003 63(3):751-65); Erratum at Mol. Pharmacol. 2005 July; 68(1): 260).

Sequence of human M4 receptor (P08173 whole entry): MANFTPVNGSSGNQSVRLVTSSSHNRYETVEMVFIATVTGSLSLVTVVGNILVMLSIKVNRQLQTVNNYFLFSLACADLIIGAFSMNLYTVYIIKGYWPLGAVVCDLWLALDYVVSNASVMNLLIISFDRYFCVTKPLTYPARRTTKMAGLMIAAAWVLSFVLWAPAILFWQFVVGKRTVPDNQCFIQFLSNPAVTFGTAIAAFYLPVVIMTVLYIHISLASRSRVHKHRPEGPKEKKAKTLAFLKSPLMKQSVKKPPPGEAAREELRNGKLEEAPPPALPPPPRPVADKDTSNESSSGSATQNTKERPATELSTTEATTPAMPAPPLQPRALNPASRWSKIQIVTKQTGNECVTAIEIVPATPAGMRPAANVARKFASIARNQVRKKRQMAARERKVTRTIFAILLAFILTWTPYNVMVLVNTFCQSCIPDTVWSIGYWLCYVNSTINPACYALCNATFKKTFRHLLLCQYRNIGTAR

Question: With `C[C@@H]1CN(c2cc(F)c(F)c(F)c2)CCN1C(=O)NCCC1CCN(Cc2ccc(C(N)=O)cc2)CC1` [6-16, (2R)-N-(2-{1-[(4-carbamoylphenyl)methyl]piperidin-4-yl}ethyl)-2-methyl-4-(3,4,5-trifluorophenyl)piperazine-1-carboxamide] as the compound, how does the Ki read?
Answer: The Ki was 10 to 100 nM.

Question: For `COc1ccc(CN2CCC(CCNC(=O)N3[C@H](C)CN(c4ncc(C#N)cn4)C[C@@H]3C)CC2)cc1` [6-65, (2R,6S)-4-(5-cyanopyrimidin-2-yl)-N-(2-{1-[(4-methoxyphenyl)-methyl]piperidin-4-yl}ethyl)-2,6-dimethylpiperazine-1-carboxamide], which Ki is on record?
Answer: The Ki was 10 to 100 nM.

Question: “N-{2-[1-(3-methylbutyl)piperidin-4-yl]ethyl}-1-[4-(trifluoromethoxy)phenyl]piperidine-4-carboxamide [11-19]” was tested. Which Ki did it give?
Answer: The Ki was 100 to 1000 nM.

Question: How did the Ki turn out when `N#Cc1ccc(N2CCN(C(=O)NCCC3CCN(Cc4ccccc4)CC3)CC2)nc1` [8-45, N-[2-(1-benzylpiperidin-4-yl)ethyl]-4-(5-cyanopyridin-2-yl)piperazine-1-carboxamide] was run?
Answer: Its Ki is 100 to 1000 nM.

Question: For `C[C@@H]1CN(c2ncc(C(=O)NCC3CC3)cn2)C[C@H](C)N1C(=O)NCCC1CCN(Cc2ccccc2)CC1` [27-5], which Ki is on record?
Answer: The Ki was 100 to 1000 nM.

Question: With `C[C@@H]1CN(c2cc(F)c(F)c(F)c2)CCN1C(=O)NCCC1CCN(Cc2ccccc2OC(F)(F)F)CC1` [6-21, (2R)-2-methyl-N-[2-(1-{[2-(trifluoromethoxy)phenyl]methyl}piperidin-4-yl)ethyl]-4-(3,4,5-trifluorophenyl)piperazine-1-carboxamide] as the compound, how does the Ki read?
Answer: Its Ki is 100 to 1000 nM.

Question: With `Cc1c(C(=O)NCCC2CCN(Cc3ccccc3)CC2)cnc2cc(-c3cccc(F)c3F)nn12` [18-7] as the compound, how does the Ki read?
Answer: The Ki was 10 to 100 nM.

Question: How did the Ki turn out when `C[C@@H]1CN(c2ccc(OC(F)(F)F)c(C#N)c2)CCN1C(=O)NCCC1CCN(Cc2ccc(I)cc2)CC1` [3-7, (2R)-4-[3-cyano-4-(trifluoromethoxy)phenyl]-N-(2-{1-[(4-iodophenyl)methyl]piperidin-4-yl}ethyl)-2-methylpiperazine-1-carboxamide] was run?
Answer: The Ki was 10 to 100 nM.

Question: `O=C(NCCC1CCN(Cc2ccccc2)CC1)N1CCC(c2csc3ccccc23)CC1` [8-10, 4-(1-benzothiophen-3-yl)-N-[2-(1-benzylpiperidin-4-yl)ethyl]piperidine-1-carboxamide] was tested. Which Ki did it give?
Answer: The Ki was 10 to 100 nM.

Question: For `N#Cc1ccc(N2CCC(C(=O)NCCC3CCN(Cc4ccccc4)CC3)CC2)c(F)c1` [10-50, N-[2-(1-benzylpiperidin-4-yl)ethyl]-1-(4-cyano-2-fluorophenyl)piperidine-4-carboxamide], which Ki is on record?
Answer: Its Ki is 100 to 1000 nM.

Question: Which Ki does the source give for `Cc1ccnc(N2CCC(C(=O)NCCC3CCN(Cc4ccccc4)CC3)CC2)c1` [9-52, N-[2-(1-benzylpiperidin-4-yl)ethyl]-1-(4-methylpyridin-2-yl)piperidine-4-carboxamide] here?
Answer: Its Ki is 100 to 1000 nM.

Question: How did the Ki turn out when `Cc1c(C(=O)NCCC2CCN(Cc3ccccc3)CC2)cnc2cc(-c3ccc(F)nc3)nn12` [18-15] was run?
Answer: Its Ki is 100 to 1000 nM.

Question: “N-{2-[1-(2,2-dimethylpropyl)piperidin-4-yl]ethyl}-1-[4-(trifluoromethoxy)phenyl]piperidine-4-carboxamide [11-27]” was tested. Which Ki did it give?
Answer: The Ki was 100 to 1000 nM.

Question: With `C[C@@H]1CN(c2cc(F)c(F)c(F)c2)CCN1C(=O)NCCC1CCN(CC2CCCCC2)CC1` [6-6, (2R)-N-{2-[1-(cyclohexylmethyl)piperidin-4-yl]ethyl}-2-methyl-4-(3,4,5-trifluorophenyl)piperazine-1-carboxamide] as the compound, how does the Ki read?
Answer: Its Ki is 10 to 100 nM.

Question: With `O=C(NCCC1CCN(Cc2ccccc2)CC1)N1CCC(c2nc3ccccc3s2)CC1` [8-14, 4-(1,3-benzothiazol-2-yl)-N-[2-(1-benzylpiperidin-4-yl)ethyl]piperidine-1-carboxamide] as the compound, how does the Ki read?
Answer: The Ki was 10 to 100 nM.

Question: Which Ki does the source give for `CN(CCNC(=O)c1ccc(-c2ccc(OC(F)(F)F)cc2)cc1)[C@@H]1CCN(Cc2ccccc2)C1` [9-39, N-(2-{[(3R)-1-benzylpyrrolidin-3-yl](methyl)amino}ethyl)-4-[4-(trifluoromethoxy)phenyl]benzamide] here?
Answer: Its Ki is 10 to 100 nM.

Question: Which Ki does the source give for `C[C@@H]1CN(c2nc(C#N)cc(C#N)n2)CCN1C(=O)NCCC1CCN(Cc2ccccc2)CC1` [4-38, (2R)-N-[2-(1-benzylpiperidin-4-yl)ethyl]-4-(4,6-dicyanopyrimidin-2-yl)-2-methylpiperazine-1-carboxamide] here?
Answer: The Ki was 10 to 100 nM.

Question: With `CC1(C(=O)NCCC2CCN(Cc3ccccc3)CC2)CCN(c2ccccc2OC(F)(F)F)CC1` [10-4, N-[2-(1-benzylpiperidin-4-yl)ethyl]-4-methyl-1-[2-(trifluoromethoxy)phenyl]piperidine-4-carboxamide] as the compound, how does the Ki read?
Answer: Its Ki is 100 to 1000 nM.

Question: How did the Ki turn out when `C[C@@H]1CN(c2ncc(C#N)cn2)C[C@H](C)N1C(=O)NCCC1CCN(CC2CCCCC2)CC1` [21-1, (2R,6S)-4-(5-cyanopyrimidin-2-yl)-N-{2-[1-(cyclohexylmethyl)piperidin-4-yl]ethyl}-2,6-dimethylpiperazine-1-carboxamide] was run?
Answer: Its Ki is 10 to 100 nM.

Question: `Cc1cc(Cl)c(-c2cc(C(=O)NCCC3CCN(Cc4ccccc4)CC3)ccc2Cl)cn1` [9-67, N-[2-(1-benzylpiperidin-4-yl)ethyl]-4-chloro-3-(4-chloro-6-methylpyridin-3-yl)benzamide] was tested. Which Ki did it give?
Answer: Its Ki is 100 to 1000 nM.

Question: How did the Ki turn out when `O=C(CC1CCN(Cc2ccccc2)CC1)NCC1CCN(c2cccc(OC(F)(F)F)c2)CC1` [10-26, 2-(1-benzylpiperidin-4-yl)-N-({1-[3-(trifluoromethoxy)phenyl]piperidin-4-yl}methyl)acetamide] was run?
Answer: Its Ki is 100 to 1000 nM.

Question: Which Ki does the source give for `O=C(NCCC1CCN(Cc2ccccc2)CC1)N1CCN(c2cccc(O)c2)CC1` [8-28, N-[2-(1-benzylpiperidin-4-yl)ethyl]-4-(3-hydroxyphenyl)piperazine-1-carboxamide] here?
Answer: The Ki was 100 to 1000 nM.

Question: With `N#Cc1cc(N2CCC(O)(C(=O)NCCC3CCN(Cc4ccccc4)CC3)CC2)ccc1F` [10-51, N-[2-(1-benzylpiperidin-4-yl)ethyl]-1-(3-cyano-4-fluorophenyl)-4-hydroxypiperidine-4-carboxamide] as the compound, how does the Ki read?
Answer: The Ki was 100 to 1000 nM.

Question: `C[C@@H]1CN(c2ccc(C(F)(F)F)nc2)CCN1C(=O)NCCC1CCN(Cc2ccccc2)CC1` [4-34, (2R)-N-[2-(1-benzylpiperidin-4-yl)ethyl]-2-methyl-4-[6-(trifluoromethyl)pyridin-3-yl]piperazine-1-carboxamide] was tested. Which Ki did it give?
Answer: Its Ki is 10 to 100 nM.

Question: Which Ki does the source give for `O=C(NCCC1CCN(Cc2ccc(F)cc2)CC1)c1ccc(OCc2ccccc2)cc1` [6-15, 4-(benzyloxy)-N-(2-{1-[(4-fluorophenyl)methyl]piperidin-4-yl}ethyl)benzamide] here?
Answer: Its Ki is 10 to 100 nM.

Question: Which Ki does the source give for `CCN1CCN(C2CCN(C(=O)NCCC3CCN(Cc4ccccc4)CC3)CC2)CC1` [8-37, N-[2-(1-benzylpiperidin-4-yl)ethyl]-4-(4-ethylpiperazin-1-yl)piperidine-1-carboxamide] here?
Answer: The Ki was 100 to 1000 nM.

Question: Which Ki does the source give for `N#Cc1cccc(N2CCN(C(=O)OCCC3CCN(Cc4ccccc4)CC3)CC2)c1` [12-2, 2-(1-benzylpiperidin-4-yl)ethyl 4-(3-cyanophenyl)piperazine-1-carboxylate] here?
Answer: The Ki was 100 to 1000 nM.

Question: For `Cc1c(C(=O)NCCC2CCN(Cc3ccc(O)cc3)CC2)cnc2cc(-c3ccccc3)nn12` [19-8], which Ki is on record?
Answer: Its Ki is 100 to 1000 nM.

Question: For `N#Cc1cnc(N2CCN(C(=O)NCCC3CCN(Cc4ccccc4)CC3)C[C@H]2CO)nc1` [5-25, (3S)-N-[2-(1-benzylpiperidin-4-yl)ethyl]-4-(5-cyanopyrimidin-2-yl)-3-(hydroxymethyl)piperazine-1-carboxamide], which Ki is on record?
Answer: Its Ki is 100 to 1000 nM.

Question: How did the Ki turn out when `N#Cc1ccc(N2CCC(C(=O)NCCC3CCN(Cc4ccccc4O)CC3)CC2)nc1` [11-26, 1-(5-cyanopyridin-2-yl)-N-(2-{1-[(2-hydroxyphenyl)methyl]piperidin-4-yl}ethyl)piperidine-4-carboxamide] was run?
Answer: The Ki was 100 to 1000 nM.

— US11033539B2, “Compounds of formulas (VII), (VIII), (IX), (XI), (XII), (XIII), and (XIV) as muscarinic receptor 4(M4) antagonists for treating neurological diseases” (Neurocrine Biosciences, Inc., priority 2015, dated 2021)
